Publication PMC5147771, “High-Resolution Genetics Identifies the Lipid Transfer Protein Sec14p as Target for Antifungal Ergolines” (PLoS Genetics, 2016)
Where two headings read alike, the source gives them in different places.

Key:
[1] = tested on: C. neoformans ATCC 36556; assay: C. neoformans growth inhibition (CLSI M27-A3 broth microdilution); type: cell-based; conditions: for MIC: Cryptococcus neoformans, ATCC36556, 72 h
From the text: (§1) Sec14p is reported to be essential for virulence as well as for growth in C. neoformans. The S. cerevisiae and C. neoformans proteins show 53% similarity by pair-wise alignment with higher conservation of the residues in the lipid-binding pocket (S2 Fig). Furthermore, three of the four sites identified to be critical for NGx04 sensitivity, are conserved (S2 Fig). In combination with the current high unmet medical need related to Cryptococcus infections we prioritized testing of NGx04 and 18 related ergoline scaffold analogs against this pathogen. Two clinical isolates of C. neoformans (ATCC 36556 and ATCC 90113) were plated in triplicates on increasing drug concentrations and MIC-2 (50% inhibition) and MIC-0 (no visible fungal growth) concentrations were scored after 72 hrs. (Fig 5).
(§2) C. neoformans strains ATCC 36556, a lung isolate, and ATCC 90113, a cerebrospinal fluid isolate, were purchased from ATCC, Manassas, VA (USA). BPY22 was obtained from.
(§3) Antifungal susceptibility testing was conducted according to the Clinical and Laboratory Standards Institute (CLSI) guidelines for broth microdilution assay M27-A3. Testing was performed in RPMI-1640 (HyClone) with 2.05 mM glutamine, phenol red, without bicarbonate and buffered with 0.165 mol/l 3-(N-morpholino) propanesulfonic acid (MOPS). The medium was adjusted to pH 7.0 and sterilized with a 0.2 μm filter. Two endpoints were recorded: MIC-0 (complete inhibition with no visible fungal growth) and MIC-2 (prominent inhibition corresponding to >50% growth reduction).

[2] = tested on: C. neoformans ATCC 90113; assay: as above; type: cell-based; conditions: 72 h, triplicate values printed singly; for MIC: Cryptococcus neoformans, ATCC90113, 72 h
From the text: as §1, §2, §3

[3] = MTS cytotoxicity assay; type: cell-based; conditions: human, HepG2 cells, triplicates, logistic regression
From the text: (§4) One key requirement of antifungal medicines is selective inhibition of the pathogen over the mammalian host. To explore potential undesired activity of NGx04 against mammalian cells we used the Cancer Cell Line Encyclopedia CCLE, a collection of 512 human cancer cell lines (broadinstitute.org/ccle). Dose-response curves for NGx04 were generated in a proliferation assay and IC50 values determined. […] Since HepG2 cells are known to be a suitable tool to profile toxicity of compounds [40], we used this liver-derived line to assess cytotoxicity of NGx04. […] 16 of 21 amino acid residues within a 5 Å radius from any atom of the docked Ngx04 ligand were not conserved between the two proteins. Critical differences in the active site of the human protein are the residues F178, C128, I151 and L186 (corresponding to S201, Y151, T175 and M209 in yeast) which form a smaller and more hydrophobic pocket compared to the yeast protein (Fig 4C). […]
(§5) Fig 4 Fungal selectivity. […] A) Dose-response curves for NGx04 were generated in growth inhibition assay and IC50 values determined in duplicates. […]
(§6) Profiling across the Cancer Cell Line Encyclopedia was performed as described previously. MTS toxicity was determined using a CellTiter 96 AQueous One Solution Cell Proliferation Assay kit from Peomega.

[4] = tested on: S. cerevisiae BY4741; assay: Phosphatidylinositol (PI) and phosphatidylcholine (PC) competition growth assay; type: cell-based; conditions: medium with 200 μM PI or 200 μM PC
From the text: To test this hypothesis, the S. cerevisisae x-ray structure of Sec14p was used to dock the NGx04 ligand into the lipid-binding cavity (Fig 3B). In the resulting docking model, the ester moiety of the ligand formed an H-bond with Y111 while the ergoline amine formed an H-bond with T175. The ergoline moiety also made van der Waals interactions with the residues Y122, Y151, S173, M177 and F212. The calculated docking model was in agreement with the experimental data from the mutagenesis study, as three of the four identified resistance conferring mutations were directly involved in ligand interactions (Y111, Y151 and S173) and the identified V154 residue, although not directly involved in ligand interactions, was only 4.5 Å away from NGx04. The model outlines that a larger residue at this position like Isoleucine would be deleterious for ligand binding. As our docking experiment was biased towards the lipid-binding cavity we aimed at further supporting evidence for NGx04 binding in this protein pocket. To do so we tested if NGx04 would compete for phospholipid-binding in the Sec14p cavity. […]
S. cerevisiae BY4741 (Open Biosystems) was grown in YPD medium in the absence or presence of additional phosphatidylinositol or phosphatidylcholine (200 μM each, Sigma-Aldrich 79401 or P3556, respectively). OD600 values of exponentially growing yeast cultures were recorded with a robotic system. […]

[5] = tested on: 512 human cancer cell lines; assay: Cancer Cell Line Encyclopedia proliferation assay; type: cell-based
From the text: as §4, §5, §6

[6] = tested on: S. cerevisiae; assay: High-throughput screen of compound archive against S. cerevisiae; type: cell-based; conditions: Saccharomyces cerevisiae; validated hit of high-throughput screen
[7] = tested on: wild type yeast carrying plasmid SEC14 variants; assay: Growth inhibition titration of yeast re-transformed with plasmids coding for SEC14 variants; conditions: Saccharomyces cerevisiae, 18 h
Description: A plasmid containing the wild type copy of SEC14 was used as control to exclude resistance due to SEC14 gene copy-number effects.
B) The plasmids coding for various SEC14 proteins were re-transformed into a fresh wild type yeast strain and serial dilutions of the cultures spotted on either 150 μM of NGx04 or DMSO control, incubated for 3 days at 30°C and scored for growth. C) The strains were grown for 24 h in the presence of increasing concentrations of NGx04 and growth measured by turbidity (OD600). Duplicate values were determined and the 18 h time point was used for logistic regression.

[8] = tested on: S. cerevisiae deletion strains; assay: Single strain growth inhibition of deletion strains (turbidity OD600); type: cell-based; conditions: Saccharomyces cerevisiae, 24 h
[9] = Artificial membrane permeability assay; type: in vitro ADME; conditions: PAMPA, to assess blood brain barrier penetration
Description: Invasion of the central nervous system by C. neoformans is a prerequisite for fungal meningitis. We thus performed artificial membrane permeability assays in order to assess the potential of the cryptococcal active compounds to penetrate the blood brain barrier (S7 Fig). […] High permeability of ergolines is expected, as members of the ergoline class are used as psychedelic narcotics since their discovery.
Metabolic stability was determined as described previously on a fully automated platform, the artificial membrane permeability assays was performed as described previously
Supplementary file pgen.1006374.s007.eps: S7 Fig Physicochemical properties of ergolines. Rat liver microsome and artificial membrane permeability assay. NGx04 and close analogues were tested for metabolic stability (CYP MetCL) and artificial membrane permeability (logPAMPA) in duplicates. Value pairs are color coded and binning is indicated. (EPS) Click here for additional data file.

[10] = 50% inhibition, 72 h, triplicate values printed singly, read-out: ATCC36556 MIC-2
[11] = no visible fungal growth, 72 h, triplicate values printed singly, read-out: ATCC36556 MIC-0
[12] = 50% inhibition, read-out: ATCC90113 MIC-2
[13] = no visible fungal growth, read-out: ATCC90113 MIC-0

With `COC(=O)C1CC2c3ccc([N+](=O)[O-])c4c3C(CC2N(C)C1)CN4C(=O)OCC(Cl)(Cl)Cl` (stereo not drawn) [NGx04] the MIC [1, 10] was 25 mg/L, the MIC [1, 11] was 50 mg/L and the “C. neoformans growth inhibition (in words)” value ([1]; clinical isolates ATCC 36556 and ATCC 90113, tested dose range) was “inhibit C. neoformans growth”. The “ATCC36556 MIC-0” value ([1]; no visible fungal growth, 72 h, triplicate values printed singly) was over 50 mg/L, the MIC [2, 12] was 25 mg/L and the MIC [2, 13] was over 50 mg/L. For the same compound, the IC50 [3] was 158 µM, the “effect of excess PI or PC on growth inhibition” value [4] was “alleviate NGx04-mediated growth inhibition” and the cell lines sensitive ([5]; share of cell lines, sensitive defined by Amax <50% and IC50 <30 μM) was “one fourth”. The “cell lines not notably affected / not significantly inhibited” value ([5]; share of the tested CCLE cell lines) was 76%, the IC50 [6] was under 20 µM and the IC50 ([7]; read-out: IC50, SEC14 S173A) was 318 µM. For the same compound, the IC50 ([7]; read-out: IC50, SEC14 V154I) was 225 µM, the IC50 ([7]; read-out: IC50, SEC14 WT plasmid) was 41.1 µM and the IC50 ([8]; read-out: IC50, strain KES1/kes1) was 18.9 µM. It also gave an IC50 ([8]; read-out: IC50, strain SEC14/sec14) of 6.3 µM, an IC50 ([8]; read-out: IC50, strain ho/ho) of 11.8 µM and an IC50 ([8]; read-out: IC50, strain itr1/itr1) of 5.2 µM. For the same compound, the IC50 ([8]; read-out: IC50, strain spo14/spo14) was 4.4 µM and the IC50 ([8]; read-out: IC50, strain srf1/srf1) was 3.8 µM.

For `CC(C)N1CC(C(=O)O)CC2c3cccc4c3C(CC21)CN4C(=O)OC(C)(C)C` (stereo not drawn) [NGx13], the artificial membrane permeability [9] was “exception”, the “ATCC36556 MIC-2” value ([1]; 50% inhibition, 72 h, triplicate values printed singly) was 13 mg/L and the MIC [1, 10] was 25 mg/L. The MIC [1, 11] was over 50 mg/L, the “ATCC90113 MIC-2” value ([2]; 50% inhibition) was 50 mg/L and the MIC [2, 12] was over 50 mg/L. The MIC [2, 13] was over 50 mg/L.
